Laboratory results published in article PMC3189771, “Structure–Activity Relationship of Halophenols as a New Class of Protein Tyrosine Kinase Inhibitors” (International Journal of Molecular Sciences, 2011).

Tests used:
[1] = target: protein tyrosine kinase (PTK); test: in vitro PTK inhibitory activity by ELISA (brain cytoplasmic tyrosine kinase extract, PGT substrate); format: biochemical, mouse; conditions: genistein as positive control; for IC50: determined in triplicate
Method: After removal of the male mouse (SD) meninges, the brain was weighted and homogenized with a glass homogenizer in four volumes of cold medium (containing 20 mmol/L Tris–HCl, pH 7.5, 0.25 mol/L sucrose, 2 mmol/L DDT, 2 mmol/L EDTA, 2 mmol/L Na3VO4, 1 mmol/L DMSF, 215 mg/L aprotinin, 1 mg/L PTIFtatin, 5 mg/L leupeptin) at high speed. The mixture was centrifuged for 10 min at 1000 × g at 4 °C; the supernatant was collected and re-centrifuged for 10 min at 10,000 × g at 4 °C to obtain the target supernatant. The target supernatant that contained cytoplasmic tyrosine kinase was collected, separately packed and stored at −70 °C.
PTK activity was determined by the ELISA method. In brief, the concentrations of PTKs used to construct calibration curves were as follows: 600, 500, 341, 200 and 100 × 10^−7 U/mL for PTK. 100 μL of 20 mg/L PGT (Sigma Aldrich) in 20 mmol/L PBS solution was added to 96-well microtiter plates at 37 °C overnight. After removing excess substrate solution, PBS–Tween 20 (PBST) was used to wash the wells one time, which were dried for 2 h at 37 °C and kept at 4 °C. Subsequently, 50 μL of the above PTK extraction (50 mmol/L HEPES, pH 7.4, 20 mmol/L MgCl2, 0.1 mmol/L MnCl2, 0.2 mmol/L Na3VO4, 0.6 mmol/L ATP) was added to the 96-well plates. Then, a certain concentration of the tested compounds (10 μL) and tyrosine kinase tissue extract solution were incubated at 37 °C for 1 h. The plate was washed three times with PBST at the end of the treatment, and 100 μL of the diluted horseradish-peroxidase-labeled mouse anti-phosphotyrosine monoclonal antibody IgG2bk (Sigma Aldrich) was added to each well, and incubated at 37 °C for 30 min. After removal of the antibody complex, and then washing three times with PBST, 100 μL freshly prepared TMB horseradish peroxidase color development solution (Beijing 4A Biotech Co., Ltd, China) was added and protected from light for 10 min. The reaction was terminated by addition of 100 μL/well 1 N sulfuric acid. Absorbance was measured at 450 nm in a microplate reader (SpectraMax M5).

Row | Compound | melting point | IC50 [1] | PTK inhibitory activity (in words) [1]
1 | COc1ccc(C(=O)c2ccccc2F)cc1OC [Compound 1a, 2-fluoro-3′,4′-dimethoxyl benzophenone] | 77 to 79 °C |  | 
2 | O=C(c1ccc(O)c(O)c1)c1ccccc1F [Compound 1c, 2-fluoro-3′,4′-dihydroxyl benzophenone] | 149 to 150 °C | > 50 µM | 
3 | Oc1ccc(Cc2ccccc2F)cc1O [Compound 1d, 2-fluoro-3′,4′-dihydroxyl diphenylmethane] | 91 to 92 °C | > 50 µM | 
4 | COc1ccc(C(=O)c2cccc(F)c2)cc1OC [Compound 2a, 3-fluoro-3′,4′-dimethoxyl benzophenone] | 103 to 105 °C |  | 
5 | O=C(c1cccc(F)c1)c1ccc(O)c(O)c1 [Compound 2c, 3-fluoro-3′,4′-dihydroxyl benzophenone] | 104 to 106 °C | > 50 µM | 
6 | Oc1ccc(Cc2cccc(F)c2)cc1O [Compound 2d, 3-fluoro-3′,4′-dihydroxyl diphenylmethane] | 66 to 68 °C | > 50 µM | 
7 | COc1ccc(C(=O)c2ccc(F)cc2)cc1OC [Compound 3a, 4-fluoro-3′,4′-dimethoxyl benzophenone] | 101 to 103 °C |  | 
8 | O=C(c1ccc(F)cc1)c1ccc(O)c(O)c1 [Compound 3c, 4-fluoro-3′,4′-dihydroxyl benzophenone] | 155 to 157 °C | > 50 µM | 
9 | Oc1ccc(Cc2ccc(F)cc2)cc1O [Compound 3d, 4-fluoro-3′,4′-dihydroxyl diphenylmethane] | 59 to 61 °C | > 50 µM | 
10 | COc1ccc(C(=O)c2ccccc2I)cc1OC [Compound 4a, 2-iodo-3′,4′-dimethoxyl benzophenone] | 143 to 145 °C |  | 
11 | O=C(c1ccc(O)c(O)c1)c1ccccc1I [Compound 4c, 2-iodo-3′,4′-dihydroxyl benzophenone] | 186 to 188 °C | > 50 µM | 
12 | Oc1ccc(Cc2ccccc2I)cc1O [Compound 4d, 2-iodo-3′,4′-dihydroxyl diphenylmethane] | 130 to 132 °C | > 50 µM | 
13 | O=C(c1ccc(O)c(O)c1)c1c(Br)c(O)c(O)c(O)c1Br [Compound 5c] |  | > 50 µM | no activity
14 | Oc1ccc(Cc2c(Br)c(O)c(O)c(O)c2Br)cc1O [Compound 5d] |  | > 50 µM | no activity
15 | O=C(c1ccc(O)c(O)c1)c1c(Cl)c(O)c(O)c(O)c1Cl [Compound 6c] |  | 2.97 µM | stronger activities than that of genistein
16 | Oc1ccc(Cc2c(Cl)c(O)c(O)c(O)c2Cl)cc1O [Compound 6d] |  | 3.96 µM | stronger activities than that of genistein

Row | Compound | melting point | IC50 [1] | PTK inhibitory activity (in words) [1]
17 | O=C(c1ccc(O)c(Br)c1)c1cc(O)c(O)cc1Br [Compound 7c] |  | > 50 µM | no activity
18 | Oc1cc(Br)c(Cc2ccc(O)c(Br)c2)cc1O [Compound 7d] |  | 6.34 µM | stronger activities than that of genistein
19 | O=C(c1ccc(O)c(O)c1)c1ccccc1Cl [Compound 8c] |  | 17.7 µM | 
20 | Oc1ccc(Cc2ccccc2Cl)cc1O [Compound 8d] |  | 14.8 µM | 
21 | O=C(c1cccc(Cl)c1)c1ccc(O)c(O)c1 [Compound 9c] |  | 17.8 µM | 
22 | Oc1ccc(Cc2cccc(Cl)c2)cc1O [Compound 9d] |  | 12.9 µM | stronger activities than that of genistein
23 | O=C(c1ccc(Cl)cc1)c1ccc(O)c(O)c1 [Compound 10c] |  | 41.6 µM | 
24 | Oc1ccc(Cc2ccc(Cl)cc2)cc1O [Compound 10d] |  | 6.97 µM | stronger activities than that of genistein
25 | O=C(c1ccccc1)c1cc(O)c(O)cc1Br [Compound 11c] |  | 16 µM | 
26 | Oc1cc(Br)c(Cc2ccccc2)cc1O [Compound 11d] |  | 6.26 µM | stronger activities than that of genistein
27 | O=C(c1ccccc1)c1cc(O)c(O)c(Br)c1Br [Compound 12c] |  | > 50 µM | 
28 | Oc1cc(Cc2ccccc2)c(Br)c(Br)c1O [Compound 12d] |  | > 50 µM | 
29 | O=C(c1cc(Br)ccc1O)c1cc(O)c(O)cc1Br [Compound 13c] |  | > 50 µM | no activity
30 | Oc1cc(Br)c(Cc2cc(Br)ccc2O)cc1O [Compound 13d] |  | 5.05 µM | stronger activities than that of genistein
31 | O=c1c(-c2ccc(O)cc2)coc2cc(O)cc(O)c12 [Genistein, genistein, reference compound] |  | 13.6 µM | 
